Measurements from patent US7138361B2, “Herbicidal heterocycles” (E. I. du Pont de Nemours and Company, priority 2000, dated 2006).

Assays:
Type in all cases: in vivo
[1] = system: Sunflower; assay: Test C preemergence; settings: Rate 125 g/ha, scale 0 to 100, 0 no effect, 100 complete control
[2] = system: Nightshade; assay: Test C preemergence; settings: Rate 250 g/ha, visual evaluation after 12 to 14 days
[3] = system: velvetleaf (Abutilon theophrasti); assay: Test B postemergence; settings: 13 to 15 days
Method in brief: (§1)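 Post-treatment, species sat 13–15 days under greenhouse conditions before visual scoring against controls, 0 (no effect) through 100 (complete control). Application preemergence to sown seeds or postemergence at 1- to 4-leaf stage, using a non-phytotoxic solvent/surfactant formulation.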

[4] = system: corn (Zea mays); assay: Test B postemergence; settings: 13 to 15 days
Method in brief: as §1

[5] = system: lambsquarters (Chenopodium album); assay: Test B postemergence; settings: 13 to 15 days
Method in brief: as §1

[6] = system: cocklebur (Xanthium strumarium); assay: Test B postemergence; settings: 13 to 15 days
Method in brief: as §1

[7] = system: crabgrass (Digitaria sanguinalis); assay: Test B postemergence; settings: 13 to 15 days
Method in brief: as §1

[8] = system: wheat (Triticum aestivum); assay: Test B postemergence; settings: 13 to 15 days
Method in brief: as §1

[9] = system: blackgrass (Alopecurus myosuroides); assay: Test B postemergence; settings: 13 to 15 days
Method in brief: as §1

[10] = system: wild oat (Avena fatua); assay: Test B postemergence; settings: 13 to 15 days
Method in brief: as §1

[11] = system: morning glory (Ipomoea hederacea); assay: Test B postemergence; settings: 13 to 15 days
Method in brief: as §1

[12] = system: Surinam grass (Brachiaria decumbens); assay: Test B postemergence; settings: 13 to 15 days
Method in brief: as §1

[13] = system: barnyardgrass (Echinochloa crus-galli); assay: Test B postemergence; settings: 13 to 15 days
Method in brief: as §1

[14] = system: pigweed (Amaranthus retroflexus); assay: Test B postemergence; settings: 13 to 15 days
Method in brief: as §1

[15] = system: giant foxtail (Setaria faberii); assay: Test B postemergence; settings: 13 to 15 days
Method in brief: as §1

[16] = system: velvetleaf (Abutilon theophrasti); assay: Test B preemergence; settings: Preemergence, Rate 500 g/ha; scale 0 to 100, 0 no effect, 100 complete control
Method in brief: as §1

[17] = system: corn (Zea mays); assay: Test B preemergence; settings: scale 0 to 100, 0 no effect, 100 complete control
Method in brief: as §1

[18] = system: lambsquarters (Chenopodium album); assay: Test B preemergence; settings: scale 0 to 100, 0 no effect, 100 complete control
Method in brief: as §1

[19] = system: cocklebur (Xanthium strumarium); assay: Test B preemergence; settings: scale 0 to 100, 0 no effect, 100 complete control
Method in brief: as §1

[20] = system: crabgrass (Digitaria sanguinalis); assay: Test B preemergence; settings: scale 0 to 100, 0 no effect, 100 complete control
Method in brief: as §1

[21] = system: rice (Oryza saliva); assay: Test B preemergence; settings: Preemergence, Rate 500 g/ha; scale 0 to 100, 0 no effect, 100 complete control
Method in brief: as §1

[22] = system: morning glory (Ipomoea hederacea); assay: Test B preemergence; settings: Preemergence, Rate 500 g/ha; scale 0 to 100, 0 no effect, 100 complete control
Method in brief: as §1

[23] = system: Surinam grass (Brachiaria decumbens); assay: Test B preemergence; settings: scale 0 to 100, 0 no effect, 100 complete control
Method in brief: as §1

[24] = system: barnyardgrass (Echinochloa crus-galli); assay: Test B preemergence; settings: scale 0 to 100, 0 no effect, 100 complete control
Method in brief: as §1

[25] = system: pigweed (Amaranthus retroflexus); assay: Test B preemergence; settings: Preemergence, Rate 500 g/ha; scale 0 to 100, 0 no effect, 100 complete control
Method in brief: as §1

[26] = system: giant foxtail (Setaria faberii); assay: Test B preemergence; settings: scale 0 to 100, 0 no effect, 100 complete control
Method in brief: as §1

[27] = Rate 125 g/ha, scale 0 (no effect) to 100 (complete control)
[28] = Rate 500 g/ha, scale 0 to 100, 0 is no effect, 100 is complete control

Compound: O=C1C(n2ccc(C3CCC3)n2)SCN1c1cccc(C(F)(F)F)c1 (stereo not shown) [Compound 37]
- Plant response rating, Sunflower [1]: 0
- Plant response rating (0 to 100), Nightshade [2]: 0
- Plant response rating, Velvetleaf [3, 27]: 0
- Plant response rating, Velvetleaf [3, 28]: 0
- Plant response rating, Corn [4, 27]: 0
- Plant response rating, Corn [4, 28]: 20
- Plant response rating, Lambsquarters [5, 27]: 0
- Plant response rating, Lambsquarters [5, 28]: 90
- Plant response rating, Cocklebur [6, 27]: 10
- Plant response rating, Cocklebur [6, 28]: 30
- Plant response rating, Crabgrass [7, 27]: 0
- Plant response rating, Crabgrass [7, 28]: 100
- Plant response rating, Wheat [8, 27]: 0
- Plant response rating, Wheat [8, 28]: 0
- Plant response rating, Blackgrass [9, 27]: 0
- Plant response rating, Blackgrass [9, 28]: 0
- Plant response rating, Wild Oat [10, 27]: 0
- Plant response rating, Wild Oat [10, 28]: 0
- Plant response rating, Morningglory [11, 27]: 20
- Plant response rating, Morningglory [11, 28]: 40
- Plant response rating, Surinam grass [12, 27]: 0
- Plant response rating, Surinam grass [12, 28]: 0
- Plant response rating, Barnyardgrass [13, 27]: 80
- Plant response rating, Barnyardgrass [13, 28]: 100
- Plant response rating, Pigweed [14, 27]: 20
- Plant response rating, Pigweed [14, 28]: 90
- Plant response rating, Foxtail, Giant [15, 27]: 60
- Plant response rating, Foxtail, Giant [15, 28]: 80
- Plant response rating, Velvetleaf [16]: 0
- Plant response rating, Corn ([17]; Preemergence, Rate 500 g/ha): 0
- Plant response rating, Corn ([17]; preemergence, Rate 125 g/ha): 0
- Plant response rating, Lambsquarters ([18]; Preemergence, Rate 500 g/ha): 100
- Plant response rating, Lambsquarters ([18]; preemergence, Rate 125 g/ha): 100
- Plant response rating, Cocklebur ([19]; preemergence, Rate 125 g/ha): 0
- Plant response rating, Crabgrass ([20]; Preemergence, Rate 500 g/ha): 100
- Plant response rating, Crabgrass ([20]; preemergence, Rate 125 g/ha): 0
- Plant response rating, Rice [21]: 0
- Plant response rating, Morningglory [22]: 0
- Plant response rating, Surinam grass ([23]; Preemergence, Rate 500 g/ha): 0
- Plant response rating, Surinam grass ([23]; preemergence, Rate 125 g/ha): 0
- Plant response rating, Barnyardgrass ([24]; Preemergence, Rate 500 g/ha): 100
- Plant response rating, Barnyardgrass ([24]; preemergence, Rate 125 g/ha): 0
- Plant response rating, Pigweed [25]: 100
- Plant response rating, Foxtail, Giant ([26]; Preemergence, Rate 500 g/ha): 100
- Plant response rating, Foxtail, Giant ([26]; preemergence, Rate 125 g/ha): 40

Compound: O=C1C(n2ccc(C3CCC3)n2)SCN1c1cccc(OC(F)F)c1 (stereo not shown) [Compound 45]
- Plant response rating, Sunflower [1]: 20
- Plant response rating (0 to 100), Nightshade [2]: 0
- Plant response rating, Velvetleaf [3, 27]: 0
- Plant response rating, Velvetleaf [3, 28]: 0
- Plant response rating, Corn [4, 27]: 0
- Plant response rating, Corn [4, 28]: 0
- Plant response rating, Lambsquarters [5, 27]: 0
- Plant response rating, Lambsquarters [5, 28]: 0
- Plant response rating, Cocklebur [6, 27]: 20
- Plant response rating, Cocklebur [6, 28]: 40
- Plant response rating, Crabgrass [7, 27]: 0
- Plant response rating, Crabgrass [7, 28]: 0
- Plant response rating, Wheat [8, 27]: 0
- Plant response rating, Wheat [8, 28]: 0
- Plant response rating, Blackgrass [9, 27]: 0
- Plant response rating, Blackgrass [9, 28]: 0
- Plant response rating, Wild Oat [10, 27]: 0
- Plant response rating, Wild Oat [10, 28]: 0
- Plant response rating, Morningglory [11, 27]: 0
- Plant response rating, Morningglory [11, 28]: 0
- Plant response rating, Surinam grass [12, 27]: 0
- Plant response rating, Surinam grass [12, 28]: 0
- Plant response rating, Barnyardgrass [13, 27]: 30
- Plant response rating, Barnyardgrass [13, 28]: 100
- Plant response rating, Pigweed [14, 27]: 0
- Plant response rating, Pigweed [14, 28]: 0
- Plant response rating, Foxtail, Giant [15, 27]: 0
- Plant response rating, Foxtail, Giant [15, 28]: 0
- Plant response rating, Velvetleaf [16]: 0
- Plant response rating, Corn ([17]; Preemergence, Rate 500 g/ha): 0
- Plant response rating, Corn ([17]; preemergence, Rate 125 g/ha): 0
- Plant response rating, Lambsquarters ([18]; Preemergence, Rate 500 g/ha): 100
- Plant response rating, Lambsquarters ([18]; preemergence, Rate 125 g/ha): 100
- Plant response rating, Cocklebur ([19]; Preemergence, Rate 500 g/ha): 0
- Plant response rating, Cocklebur ([19]; preemergence, Rate 125 g/ha): 0
- Plant response rating, Crabgrass ([20]; Preemergence, Rate 500 g/ha): 100
- Plant response rating, Crabgrass ([20]; preemergence, Rate 125 g/ha): 30
- Plant response rating, Rice [21]: 60
- Plant response rating, Morningglory [22]: 0
- Plant response rating, Surinam grass ([23]; Preemergence, Rate 500 g/ha): 80
- Plant response rating, Surinam grass ([23]; preemergence, Rate 125 g/ha): 70
- Plant response rating, Barnyardgrass ([24]; Preemergence, Rate 500 g/ha): 100
- Plant response rating, Barnyardgrass ([24]; preemergence, Rate 125 g/ha): 80
- Plant response rating, Pigweed [25]: 100
- Plant response rating, Foxtail, Giant ([26]; Preemergence, Rate 500 g/ha): 100
- Plant response rating, Foxtail, Giant ([26]; preemergence, Rate 125 g/ha): 100
